ChEMBL document CHEMBL5608163, “Structure modification of anoplin for fighting resistant bacteria” (Eur J Med Chem, 2024)
Converted amounts (≈) assume the structure as drawn. Square brackets hold non-standard residues; d marks the D form. Peptide text beside a SMILES is read from it. 2Nal = N[C@@H](Cc1ccc2ccccc2c1)C(=O)O; hIle = CC[C@H](C)C[C@H](N)C(=O)O; Cha = N[C@@H](CC1CCCCC1)C(=O)O

Key:
Staphylococcus aureus [1] = test: Antimicrobial activity against Staphylococcus aureus ATCC 25923 assessed as reduction in microbial growth incubated for 18 hrs by CLSI-based Mueller-Hinton broth dilution method; format: functional
Bacillus subtilis = test: Antibacterial activity against Bacillus subtilis ATCC 23857 assessed as reduction in bacterial growth incubated for 18 hrs by CLSI-based Mueller-Hinton broth dilution method; format: functional
[2] = test system: Staphylococcus epidermidis; test: Antibacterial activity against Staphylococcus epidermidis ATCC 12228 assessed as reduction in bacterial growth incubated for 18 hrs by CLSI-based Mueller-Hinton broth dilution method; format: functional
Escherichia coli [3] = test: Antibacterial activity against Escherichia coli ML-35 ATCC 43837 assessed as reduction in bacterial growth incubated for 18 hrs by CLSI-based Mueller-Hinton broth dilution method; format: functional
Pseudomonas aeruginosa [4] = test: Antibacterial activity against Pseudomonas aeruginosa ATCC 27853 assessed as reduction in bacterial growth incubated for 18 hrs by CLSI-based Mueller-Hinton broth dilution method; format: functional
Klebsiella pneumoniae = test: Antibacterial activity against Klebsiella pneumoniae ATCC 700603 assessed as reduction in bacterial growth incubated for 18 hrs by CLSI-based Mueller-Hinton broth dilution method; format: functional
Acinetobacter baumannii = test: Antibacterial activity against Acinetobacter baumannii ATCC 19606 assessed as reduction in bacterial growth incubated for 18 hrs by CLSI-based Mueller-Hinton broth dilution method; format: functional
Erythrocyte = test: Hemolytic activity in mouse erythrocyte assessed as hemolysis incubated for 1 hr by microplate reader analysis; format: toxicity, cell-based
Pseudomonas aeruginosa [5] = test: Antibacterial activity against Pseudomonas aeruginosa ATCC 27853 assessed as reduction in microbial growth incubated for 16 to 20 hrs by CLSI protocol based Muller Hinton broth assay; format: functional; conditions: time 16-20 hrs
Staphylococcus aureus [6] = test: Antibacterial activity against methicillin-resistant Staphylococcus aureus ATCC 33591 assessed as reduction in bacterial growth incubated for 18 hrs by agar dilution method; format: functional
Enterococcus faecium = test: Antibacterial activity against vancomycin resistant Enterococcus faecium ATCC 700221 assessed as inhibition of bacterial growth incubated for 48 hrs by CLSI-based broth microdilution assay; format: functional
Escherichia coli [7] = test: Antibacterial activity against Escherichia coli ATCC 25922 assessed as reduction in microbial growth incubated for 16 to 20 hrs by CLSI protocol based Muller Hinton broth assay; format: functional; conditions: time 16-20 hrs
[8] = Hemolytic activity in human RBC assessed as hemolysis measured after 24 hrs; format: toxicity, cell-based, Erythrocyte; conditions: red blood cells

| MIC (Staphylococcus aureus [1]) | MIC (Bacillus subtilis) | MIC [2] | MIC (Escherichia coli [3]) | MIC (Pseudomonas aeruginosa [4]) | MIC (Klebsiella pneumoniae) | MIC (Acinetobacter baumannii) | SMILES | HC10 (Erythrocyte) | MIC (Pseudomonas aeruginosa [5]) | MIC (Staphylococcus aureus [6]) | MIC (Enterococcus faecium) | MIC (Escherichia coli [7]) | HC50 at 24 h [8] |
| --- | --- | --- | --- | --- | --- | --- | --- | --- | --- | --- | --- | --- | --- |
| 8 µM | 2 µM (≈ 2.64 µg/mL) | 4 µM (≈ 5.29 µg/mL) | 4 µM (≈ 5.29 µg/mL) | 4 µM (≈ 5.29 µg/mL) | 8 µM (≈ 10.6 µg/mL) | 4 µM (≈ 5.29 µg/mL) | CCCCCCCCCCC(=O)NCCCC[C@@H](NC(=O)[C@@H](NC(=O)[C@H](CCCNC(=N)N)NC(=O)[C@@H](CCCCN)NC(=O)[C@H](CC(C)C)NC(=O)[C@H](CC(C)C)NC(=O)CN)[C@@H](C)CC)C(=O)N[C@H](C(=O)N[C@@H](CC(C)C)C(=O)N[C@@H](CC(C)C)C(N)=O)[C@@H](C)O | 128 µM | – | – | – | – | – |
| – | – | – | – | – | – | – | CC[C@H](C)[C@H](NC(=O)[C@H](CCCNC(=N)N)NC(=O)[C@H](CCCCN)NC(=O)[C@H](CC(C)C)NC(=O)[C@H](Cc1ccc2ccccc2c1)NC(=O)CN)C(=O)N[C@@H](CCCCN)C(=O)N[C@H](C(=O)N[C@@H](CC(C)C)C(=O)N[C@@H](CC(C)C)C(N)=O)[C@@H](C)O (H-G[2Nal]LKRIKTLL-NH2) | – | 9.5 µM | 15.8 µM (≈ 19.6 µg/mL) | 15.8 µM (≈ 19.6 µg/mL) | 15.8 µM | 52.8 µM |
| 8 µM | 4 µM (≈ 5.29 µg/mL) | 2 µM (≈ 2.64 µg/mL) | 8 µM (≈ 10.6 µg/mL) | 8 µM (≈ 10.6 µg/mL) | 32 µM (≈ 42.3 µg/mL) | 16 µM (≈ 21.1 µg/mL) | CCCCCCCCCCC(=O)NCCCC[C@@H](NC(=O)[C@H](CC(C)C)NC(=O)[C@H](CC(C)C)NC(=O)CN)C(=O)N[C@@H](CCCNC(=N)N)C(=O)N[C@H](C(=O)N[C@H](CCCCN)C(=O)N[C@H](C(=O)N[C@@H](CC(C)C)C(=O)N[C@@H](CC(C)C)C(N)=O)[C@@H](C)O)[C@@H](C)CC | 256 µM | – | – | – | – | – |
| – | – | – | – | – | – | – | CC[C@H](C)C[C@H](NC(=O)[C@H](CCCNC(=N)N)NC(=O)[C@H](CCCCN)NC(=O)[C@H](CC1CCCCC1)NC(=O)[C@H](CC(C)C)NC(=O)CN)C(=O)N[C@@H](CCCCN)C(=O)N[C@H](C(=O)N[C@@H](CC(C)C)C(=O)N[C@@H](CC(C)C)C(N)=O)[C@@H](C)O (H-GL[Cha]KR[hIle]KTLL-NH2) | – | 28.4 µM | 28.4 µM (≈ 34.3 µg/mL) | 28.4 µM (≈ 34.3 µg/mL) | 28.4 µM | 436 µM |
| – | – | – | – | – | – | – | CC[C@H](C)C[C@H](NC(=O)[C@H](CCCNC(=N)N)NC(=O)[C@H](CCCCN)NC(=O)[C@H](CC(C)C)NC(=O)[C@H](CC(C)C)NC(=O)CN)C(=O)N[C@@H](CCCCN)C(=O)N[C@H](C(=O)N[C@@H](Cc1ccc2ccccc2c1)C(=O)N[C@@H](CC(C)C)C(N)=O)[C@@H](C)O (H-GLLKR[hIle]KT[2Nal]L-NH2) | – | 28.4 µM | 28.4 µM (≈ 35.5 µg/mL) | 8.8 µM (≈ 11 µg/mL) | 15.8 µM | 149 µM |
| – | – | – | – | – | – | – | CC[C@H](C)[C@H](NC(=O)[C@H](Cc1ccccc1)NC(=O)[C@H](CCCCN)NC(=O)[C@H](CC(C)C)NC(=O)[C@H](CC(C)C)NC(=O)CN)C(=O)N[C@@H](CCCCN)C(=O)N[C@@H](Cc1c[nH]c2ccccc12)C(=O)N[C@@H](CC(C)C)C(=O)N[C@@H](CC(C)C)C(N)=O (H-GLLKFIKWLL-NH2) | – | 256 µM | 7.4 µM (≈ 9.1 µg/mL) | 0.8 µM (≈ 0.984 µg/mL) | 22.1 µM | 0.6 µM |
| 16 µM | 8 µM (≈ 11 µg/mL) | 4 µM (≈ 5.51 µg/mL) | 64 µM (≈ 88.2 µg/mL) | 32 µM (≈ 44.1 µg/mL) | 32 µM (≈ 44.1 µg/mL) | 8 µM (≈ 11 µg/mL) | CCCCCCCCCCCCCCC(=O)NCCCC[C@@H](NC(=O)[C@@H](NC(=O)[C@H](CCCNC(=N)N)NC(=O)[C@@H](CCCCN)NC(=O)[C@H](CC(C)C)NC(=O)[C@H](CC(C)C)NC(=O)CN)[C@@H](C)CC)C(=O)N[C@H](C(=O)N[C@@H](CC(C)C)C(=O)N[C@@H](CC(C)C)C(N)=O)[C@@H](C)O | 16 µM | – | – | – | – | – |
| – | – | – | – | – | – | – | CC[C@H](C)[C@H](NC(=O)[C@H](CCCNC(=N)N)NC(=O)[C@H](CCCCN)NC(=O)[C@H](Cc1ccc2ccccc2c1)NC(=O)[C@H](CC(C)C)NC(=O)CN)C(=O)N[C@@H](CCCCN)C(=O)N[C@H](C(=O)N[C@@H](CC(C)C)C(=O)N[C@@H](CC(C)C)C(N)=O)[C@@H](C)O (H-GL[2Nal]KRIKTLL-NH2) | – | 9.5 µM | 28.4 µM (≈ 35.1 µg/mL) | 9.5 µM (≈ 11.8 µg/mL) | 28.4 µM | 172 µM |
| > 128 µM | > 128 µM | > 128 µM | > 128 µM | > 128 µM | > 128 µM | > 128 µM | CCCCC(=O)NCCCC[C@@H](NC(=O)[C@H](CC(C)C)NC(=O)[C@H](CC(C)C)NC(=O)CN)C(=O)N[C@@H](CCCNC(=N)N)C(=O)N[C@H](C(=O)N[C@H](CCCCN)C(=O)N[C@H](C(=O)N[C@@H](CC(C)C)C(=O)N[C@@H](CC(C)C)C(N)=O)[C@@H](C)O)[C@@H](C)CC | > 256 µM | – | – | – | – | – |
